Experimental findings from ChEMBL document CHEMBL5055660, “In vitro activity of N-phenyl-1,10-phenanthroline-2-amines against tachyzoites and bradyzoites of Toxoplasma gondii” (Bioorg Med Chem, 2021) are described below.

In series [1] the test system is Toxoplasma gondii. Nature of the series: Anti-tachyzoite activity against RFP-expressing Toxoplasma gondii RH Type 1 infected in NHDF cells assessed as destruction of host cells at 1 uM incubated for 96 hrs followed by removal of medium containing compounds and subsequent addition of fresh medium without compounds and measured after 8 days by crystal violet staining based optical microscopic analysis. It counts as functional, organism-based.

The subject of series [2] is Toxoplasma gondii. As to the kind of experiment: Induction of morphological changes in Toxoplasma gondii ESG reporter strain at 10 uM. It counts as functional, organism-based.
The subject of series [3] is Toxoplasma gondii. As to the kind of experiment: Anti-bradyzoite activity against Toxoplasma gondii ESG reporter stain infected in NHDF cells assessed as viable cells recovery causing host cell lysis at 1 uM measured after 15 days by optical microscopic analysis. Format: functional, organism-based. Conditions: time 15.0 day.
The test system of series [4] is Toxoplasma gondii. Nature of the series: Anti-bradyzoite activity against Toxoplasma gondii ESG reporter strain infected in NHDF cells assessed as cell lysis measured after 21 days. Format: functional, organism-based. The following applies: time 21.0 day.
Series [5] has as its system Toxoplasma gondii. Nature of the series: Anti-tachyzoite activity against RFP-expressing Toxoplasma gondii RH Type 1 infected in NHDF cells assessed as inhibition of plaque formation at 10 uM incubated for 96 hrs followed by removal of medium containing compounds and subsequent addition of fresh medium without compounds and measured after 8 days by crystal violet staining based optical microscopic analysis. Format: functional, organism-based.

Series [6] relates to Toxoplasma gondii. Nature of the series: Induction of stage conversion in Toxoplasma gondii ESG reporter strain at 1 uM. Format: functional, organism-based.
For series [7], the system named is Toxoplasma gondii. As to the kind of experiment: Anti-bradyzoite activity against Toxoplasma gondii ESG reporter stain infected in NHDF cells assessed as parasite proliferation at 10 uM measured after 30 days by optical microscopic analysis. Format: functional, organism-based. The following applies: time 30.0 day.
Series [8] relates to Toxoplasma gondii. As to the kind of experiment: Anti-bradyzoite activity against Toxoplasma gondii ESG reporter strain infected in NHDF cells assessed as morphological alteration at 0.625 uM measured after 5 days under alkaline condition by TEM analysis. Format: functional, organism-based. The following applies: time 5.0 day.
Series [9] has as its system Toxoplasma gondii. Nature of the series: Induction of cell death in RFP-expressing Toxoplasma gondii RH Type 1 assessed as DNA fragmentation at 156 nM after 72 hrs by immunoblotting analysis. Format: functional, organism-based. On the technique in general: In western blotting, separated proteins are transferred to a membrane and probed.
Series [10] relates to Toxoplasma gondii. As to the kind of experiment: Anti-bradyzoite activity against Toxoplasma gondii ESG reporter stain infected in NHDF cells assessed as parasitic infection at 0.625 uM measured after 60 days by optical microscopic analysis. Conditions: time 60.0 day. Format: functional, organism-based.
Series [11] deals with Toxoplasma gondii. As to the kind of experiment: Induction of mitochondria swelling in RFP-expressing Toxoplasma gondii RH Type 1 at 156 nM after 72 hrs by TEM analysis. Format: functional, organism-based. Conditions: NHDF.
Series [12] has as its system Toxoplasma gondii. As to the kind of experiment: Anti-tachyzoite activity against RFP-expressing Toxoplasma gondii RH Type 1 infected in NHDF cells assessed as inhibition of plaque formation at 0.312 uM incubated for 96 hrs followed by removal of medium containing compounds and subsequent addition of fresh medium without compounds and measured after 8 days by crystal violet staining based optical microscopic analysis. Format: functional, organism-based.

Series [13] can be described thus: Selectivity index, ratio of CC50 for cytotoxicity against NHDF cells to ED50 for Anti-tachyzoite activity against RFP-expressing Toxoplasma gondii RH Type 1 infected in NHDF cells. Format: toxicity, cell-based. The following applies: human; read-out: Selectivity Index.
Series [14] deals with Toxoplasma gondii. Nature of the series: Anti-tachyzoite activity against RFP-expressing Toxoplasma gondii RH Type 1 infected in NHDF cells assessed as inhibition of parasite proliferation measured after 96 hrs by fluorescence plate reader. Format: functional. Conditions: RH Type 1, NHDF, read-out: ED50 (the source's name).
In series [15] the test system is Toxoplasma gondii. Nature of the series: Anti-tachyzoite activity against RFP-expressing Toxoplasma gondii RH Type 1 infected in NHDF cells assessed as inhibition of parasite proliferation measured after 72 hrs by fluorescence plate reader. It counts as functional. The following applies: RH Type 1, NHDF, read-out: ED50 (the source's name).
The subject of series [16] is Toxoplasma gondii. Nature of the series: Induction of vacuole formation in Toxoplasma gondii ESG reporter strain infected in NHDF cells assessed as increase in BAG positive vacuole number pretreated with PYR for 3 days followed by compound treatment and further incubated for 4 days. Format: functional, organism-based. Conditions: time 4.0 day.
In series [17] the test system is Toxoplasma gondii. Nature of the series: Induction of cytoplasmic vacuolization in RFP-expressing Toxoplasma gondii RH Type 1 at 156 nM after 72 hrs by TEM analysis. Format: functional, organism-based.
For series [18], the system named is Toxoplasma gondii. Nature of the series: Induction of nuclear fragmentation in RFP-expressing Toxoplasma gondii RH Type 1 at 156 nM after 72 hrs by TEM analysis. Format: functional, organism-based. Conditions: NHDF.
For series [19], the system named is Toxoplasma gondii. As to the kind of experiment: Anti-tachyzoite activity against RFP-expressing Toxoplasma gondii RH Type 1 infected in NHDF cells assessed as inhibition of plaque formation at 0.312 uM when host cells pretreated for 3 days followed by infection and removal of medium containing compounds and subsequent addition of fresh medium without compounds and measured after 7 days by crystal violet staining based optical microscopic analysis. Format: functional, organism-based. The following applies: time 3.0 day.

The subject of series [20] is Toxoplasma gondii. As to the kind of experiment: Anti-bradyzoite activity against Toxoplasma gondii ESG reporter strain infected in NHDF cells assessed as induction of cyst formation measured after 5 days under alkaline condition by TEM analysis. It counts as functional, organism-based. The following applies: time 5.0 day.
A short description of series [21]: Cytotoxicity against NHDF cells assessed as reduction in cell viability measured after 96 hrs by MTS assay. It counts as cell-based. The following applies: human. In general terms: Tetrazolium dyes change colour on reduction, which living cells bring about.
Series [22] relates to Toxoplasma gondii. Nature of the series: Anti-tachyzoite activity against RFP-expressing Toxoplasma gondii RH Type 1 infected in NHDF cells assessed as plaque formation at 0.156 uM incubated for 96 hrs followed by removal of medium containing compounds and subsequent addition of fresh medium without compounds and measured after 8 days by crystal violet staining based optical microscopic analysis. It counts as functional, organism-based.

In series [23] the test system is Toxoplasma gondii. As to the kind of experiment: Anti-bradyzoite activity against Toxoplasma gondii ESG reporter stain infected in NHDF cells assessed as parasite proliferation at 0.325 uM measured after 30 days by optical microscopic analysis. It counts as functional, organism-based. Conditions: time 30.0 day.
Series [24] has as its system Toxoplasma gondii. As to the kind of experiment: Anti-bradyzoite activity against Toxoplasma gondii ESG reporter strain infected in NHDF cells assessed as increase in BAG-positive vacuole number at 0.625 uM pretreated with PYR for 3 days followed by compound treatment and further incubated for 4 days. The following applies: time 4.0 day. It counts as functional, organism-based.

In series [25] the test system is Toxoplasma gondii. Nature of the series: Anti-tachyzoite activity against RFP-expressing Toxoplasma gondii RH Type 1 infected in NHDF cells assessed as plaque formation at 4 uM incubated for 96 hrs followed by removal of medium containing compounds and subsequent addition of fresh medium without compounds and measured after 8 days by crystal violet staining based optical microscopic analysis. It counts as functional, organism-based.

The test system of series [26] is Toxoplasma gondii. As to the kind of experiment: Anti-tachyzoite activity against RFP-expressing Toxoplasma gondii RH Type 1 infected in NHDF cells assessed as plaque formation at 2 uM incubated for 96 hrs followed by removal of medium containing compounds and subsequent addition of fresh medium without compounds and measured after 8 days by crystal violet staining based optical microscopic analysis. Format: functional, organism-based.

Series [27] concerns Toxoplasma gondii. Nature of the series: Anti-bradyzoite activity against Toxoplasma gondii ESG reporter stain infected in NHDF cells assessed as viable cells recovery causing host cell lysis at 2 uM measured after 15 days by optical microscopic analysis. It counts as functional, organism-based. The following applies: time 15.0 day.
Series [28] has as its system Toxoplasma gondii. Nature of the series: Anti-bradyzoite activity against Toxoplasma gondii ESG reporter stain infected in NHDF cells assessed as parasite proliferation at 4 uM measured after 30 days by optical microscopic analysis. Format: functional, organism-based. The following applies: time 30.0 day.
Series [29] concerns Toxoplasma gondii. Nature of the series: Induction of stage conversion in Toxoplasma gondii ESG reporter strain at 4 uM. Format: functional, organism-based.
For series [30], the system named is Toxoplasma gondii. As to the kind of experiment: Anti-bradyzoite activity against Toxoplasma gondii ESG reporter strain infected in NHDF cells assessed as induced cyst formation at 2 uM measured after 5 days under alkaline condition by TEM analysis. Format: functional, organism-based. Conditions: time 5.0 day.
Series [31] has as its system Toxoplasma gondii. As to the kind of experiment: Anti-bradyzoite activity against Toxoplasma gondii ESG reporter strain infected in NHDF cells assessed as cell lysis at 2 uM measured after 21 days. It counts as functional, organism-based. Conditions: time 21.0 day.
In series [32] the test system is Toxoplasma gondii. As to the kind of experiment: Induction of stage conversion in Toxoplasma gondii ESG reporter strain at 2 uM. Format: functional, organism-based.
In series [33] the test system is Toxoplasma gondii. As to the kind of experiment: Anti-bradyzoite activity against Toxoplasma gondii ESG reporter strain infected in NHDF cells assessed as increase in BAG-positive vacuole number at 2 uM pretreated with PYR for 3 days followed by compound treatment and further incubated for 4 days. Conditions: time 4.0 day. Format: functional, organism-based.
Series [34] relates to Toxoplasma gondii. Nature of the series: Anti-tachyzoite activity against RFP-expressing Toxoplasma gondii RH Type 1 infected in NHDF cells assessed as viable cells recovery causing host cell lysis at 5 uM incubated for 96 hrs followed by removal of medium containing compounds and subsequent addition of fresh medium without compounds and measured after 8 days by crystal violet staining based optical microscopic analysis relative to control. Format: functional.

SMILES strings stand for the structures. Active and inactive are the calls of the source. The calls are words filed in the database; no cut-off is given here.

As for `O=C1C(O)=C([C@H]2CC[C@H](c3ccc(Cl)cc3)CC2)C(=O)c2ccccc21`, the outcome in the series with Toxoplasma gondii [1], in the series on Toxoplasma gondii [2], in the series with Toxoplasma gondii [3], in the series on Toxoplasma gondii [4], in the series on Toxoplasma gondii [5] and in the series with Toxoplasma gondii [6] was Active. For the same compound, the outcome with Toxoplasma gondii [7] was Active.

Regarding `c1ccc2c(Nc3ccc4ccc5cccnc5c4n3)cccc2c1`, the outcome in the series on Toxoplasma gondii [8], in the series on Toxoplasma gondii [9], in the series with Toxoplasma gondii [11], with Toxoplasma gondii [12], with Toxoplasma gondii [16] and in the series with Toxoplasma gondii [17] was Active. Besides, the outcome in the series on Toxoplasma gondii [18], in the series with Toxoplasma gondii [19], with Toxoplasma gondii [20], with Toxoplasma gondii [22], in the series with Toxoplasma gondii [23] and in the series on Toxoplasma gondii [24] was Active. The outcome in the series on Toxoplasma gondii [10] was inactive. In series [13], the selectivity ratio is 114. Moreover, the EC50 in the series on Toxoplasma gondii [14] worked out at 150 nM; in the series with Toxoplasma gondii [15], 240 nM. For the same compound, in series [21], the cytotoxic concentration (CC50) (in general, the concentration giving 50% cytotoxicity) at 96 h is 11.4 µM.

With `CCc1nc(N)nc(N)c1-c1ccc(Cl)cc1`, the result in the series with Toxoplasma gondii [25], with Toxoplasma gondii [1], in the series on Toxoplasma gondii [26], in the series on Toxoplasma gondii [27], in the series on Toxoplasma gondii [28] and with Toxoplasma gondii [29] was Active. The outcome with Toxoplasma gondii [30], in the series with Toxoplasma gondii [6], in the series with Toxoplasma gondii [31], in the series on Toxoplasma gondii [32] and in the series with Toxoplasma gondii [33] was Active.

In the case of `N#Cc1ccc(Nc2ccc3ccc4cccnc4c3n2)cc1`, the Activity in the series on Toxoplasma gondii [34] was 100%. In addition, in the series with Toxoplasma gondii [4], the outcome was Active. The selectivity ratio in series [13] is 21. Further, the EC50 in the series on Toxoplasma gondii [14] was 1660 nM; in the series with Toxoplasma gondii [15] it was 1060 nM. In addition, the CC50 at 96 h in series [21] turned out to be 31 µM.
